Experimental data as given in PubChem BioAssay AID1963441 (Molecular Pharmacology Branch, DTP, NCI, 2024).
Blank lines part the entries; values can stand above or below the compound they belong to.

Test system: NCI-H1876 complex spheroid growth, % test/control
Assay: Anticancer human tumor NCI-H1876 cell line growth inhibition [Asc];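 also: compound exposure lasted 7 days starting three days after seeding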;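 as to viability, T/C: 100% = DMSO vehicle control wells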
Details: for IC50: curve of first compound; for viability, T/C: stronger effect = lower value
Description: Multicellular complex tumor spheroid response to apoptosis pathway targeting inhibitors Alrizomadlin, Pelcitoclax, and Dasminapant in combination with a variety of drugs and investigational agents in selected tumor cell lines
The MDM2 inhibitor alrizomadlin, the Bcl-2/Bcl-xL inhibitor pelcitoclax, and the IAPs inhibitor dasminapant were evaluated both individually and in combination with standard of care and investigational anticancer small molecules within a complex spheroid model of solid tumors. . Complex spheroids include a stromal component modeled by human endothelial cells (HUVEC) and fibroblasts modeled by human mesenchymal stem cells (MSCs). The concentration ranges selected for each drug and investigational agent were based upon clinically achievable concentrations if the clinical Cmax of the agent was known.
Compounds. The drugs and investigational agents: alrizomadlin (APG-115; NSC831270), pelcitoclax (APG-1252; NSC835773), dasminapant (APG-1387;NSC834197), TAK-243 (NSC785004), copanlisib (NSC809693), olaparib (NSC753686), talazoparib (NSC767125), cobimetinib (NSC 768068), eltanexor (KPT-8602, NSC 794443), abemaciclib (NSC 768073), sotorasib (NSC818433), adagrasib (NSC 831453), MRTX-1133 (NSC 836407), Iadademestat (ORY1001, NSC 806812), and RMC-4630 (NSC839698), were obtained from the NCI Developmental Therapeutics Program Chemical Repository. The FDA-approved anticancer drug set is available from the Developmental Therapeutics Program at https://dtp.cancer.gov/organization/dscb/obtaining/available plates.htm. […] The stock solutions were prepared in dimethyl sulfoxide (DMSO, Sigma-Aldrich, St. Louis, MO, cat. D2650) at 800-fold the tested concentration and stored at -70 degrees C prior to their use. All drugs and investigational agents were tested over a range starting from a high concentration at or near the clinical Cmax and decreasing in half-log increments. If the clinical Cmax for an agent had not been determined, the highest concentration tested was 10 microM.
The patient-derived cancer (PDC) cell lines include five colon adenocarcinomas: 186277-243-T-J2-PDC, 616215-338-R-J1-PDC, 439559-082-T-J2-PDC, 463943-066-T-J2-PDC, and 519858-162-T-J1-PDC; three pancreatic carcinomas: 323965-272-R-J2-PDC, 521955-158-R6-J3-PDC, and 521955-158-R2-J5-PDC; two uterine sarcomas: 327498-152-R-J2-PDC and 993429-296-R-J1-PDC; two rhabdomyosarcomas: 755483-174-R-J1-PDC and 772245-204-R-J1-PDC; two soft tissue sarcomas: 126254-015-R-J1-PDC and 494315-158-R-J1-PDC; two malignant fibrous histiocytomas: 317291-083-R-J1-PDC and 596521-263-R-J1-PDC; two breast carcinomas: 171881-019-R-J1-PDC and 885512-296-R-J2-PDC; and one ovarian carcinoma: 6556581-035-R-J-PDC were obtained from the NCI PDMR, (https://pdmr.cancer.gov). The established cell lines HSSY-2 synovial sarcoma (RRID:CVCL 8719), SYO-1 synovial sarcoma (RRID:CVCL_7146), MPNST malignant peripheral neural sheath tumor were obtained from the Sloan Kettering Institute. The following established cell lines were purchased from the American Type Culture Collection (ATCC, Manassas, VA), Sor the received from the NCI repository:, PANC-1 pancreatic carcinoma (CRL-1469, RRID:CVCL_0480), OVCAR-5 ovarian carcinoma (RRID:CVCL_1628), OVCAR-8 ovarian carcinoma (RRID:CVCL_1629), , MCF-7 breast carcinoma (CRL-12584, RRID:CVCL_0031), MDA-MB-231 breast carcinoma (CRL-12532, RRID:CVCL_0062), NCI-H1876 small cell lung carcinoma (CRL-5902, RRID:CVCL_1503), NCI-H510A small cell lung carcinoma (HTB-184, RRID:CVCL_1565), NCI-H1417 (CRL-5869, RRID:CVCL_1469), and NCI-H196 small cell lung carcinoma (CRL-5823, RRID:CVCL_1509). Dr. Peter Houghton (Greehey Children's Cancer Research Institute, University of Texas Health Science Center, San Antonio, TX) provided Rh-18 rhabdomyosarcoma (RRID:CVCL_1659). Pooled donor human umbilical vein endothelial cells (HUVEC, Lonza, cat. CC-2519) and human mesenchymal stem cells (hMSC, Lonza, cat. PT-2501) were purchased from Lonza (Walkersville, MD).
Cell Culture. […]

- IC50 (second compound 0.00949 µM): > 1 µM
- IC50 (second compound 0.03 µM): > 1 µM
- IC50 (second compound 0.0949 µM): > 1 µM
- IC50 (second compound 0.3 µM): > 1 µM
- IC50 (second compound 0.949 µM): > 1 µM
- IC50 (second compound 3 µM): > 1 µM
SMILES: CNC(C)C(=O)NC1CN(S(=O)(=O)c2cccc(S(=O)(=O)N3CCC4CCC(C(=O)NC(c5ccccc5)c5ccccc5)N4C(=O)C(NC(=O)C(C)NC)C3)c2)CCC2CCC(C(=O)NC(c3ccccc3)c3ccccc3)N2C1=O (centres undefined) + CCN1C(C(=O)NC23CCC(C(=O)O)(CC2)CC3)C(c2cccc(Cl)c2F)C2(C(=O)Nc3cc(Cl)ccc32)C12CCCCC2
- viability, T/C (second compound 0.00949 µM, first compound 0.00316 µM): 101%
- viability, T/C (second compound 0.00949 µM, first compound 0.01 µM): 99.6%
- viability, T/C (second compound 0.00949 µM, first compound 0.0316 µM): 101%
- viability, T/C (second compound 0.00949 µM, first compound 0.1 µM): 100%
- viability, T/C (second compound 0.00949 µM, first compound 0.316 µM): 116%
- viability, T/C (second compound 0.00949 µM, first compound 1 µM): 102%
- viability, T/C (second compound 0.03 µM, first compound 0.00316 µM): 103%
- viability, T/C (second compound 0.03 µM, first compound 0.01 µM): 96.7%
- viability, T/C (second compound 0.03 µM, first compound 0.0316 µM): 98.8%
- viability, T/C (second compound 0.03 µM, first compound 0.1 µM): 98.4%
- viability, T/C (second compound 0.03 µM, first compound 0.316 µM): 115%
- viability, T/C (second compound 0.03 µM, first compound 1 µM): 97%
- viability, T/C (second compound 0.0949 µM, first compound 0.00316 µM): 111%
- viability, T/C (second compound 0.0949 µM, first compound 0.01 µM): 104%
- viability, T/C (second compound 0.0949 µM, first compound 0.0316 µM): 106%
- viability, T/C (second compound 0.0949 µM, first compound 0.1 µM): 106%
- viability, T/C (second compound 0.0949 µM, first compound 0.316 µM): 98.5%
- viability, T/C (second compound 0.0949 µM, first compound 1 µM): 110%
- viability, T/C (second compound 0.3 µM, first compound 0.00316 µM): 103%
- viability, T/C (second compound 0.3 µM, first compound 0.01 µM): 108%
- viability, T/C (second compound 0.3 µM, first compound 0.0316 µM): 108%
- viability, T/C (second compound 0.3 µM, first compound 0.1 µM): 108%
- viability, T/C (second compound 0.3 µM, first compound 0.316 µM): 118%
- viability, T/C (second compound 0.3 µM, first compound 1 µM): 103%
- viability, T/C (second compound 0.949 µM, first compound 0.00316 µM): 114%
- viability, T/C (second compound 0.949 µM, first compound 0.01 µM): 119%
- viability, T/C (second compound 0.949 µM, first compound 0.0316 µM): 106%
- viability, T/C (second compound 0.949 µM, first compound 0.1 µM): 119%
- viability, T/C (second compound 0.949 µM, first compound 0.316 µM): 115%
- viability, T/C (second compound 0.949 µM, first compound 1 µM): 112%
- viability, T/C (second compound 3 µM, first compound 0.00316 µM): 114%
- viability, T/C (second compound 3 µM, first compound 0.01 µM): 108%
- viability, T/C (second compound 3 µM, first compound 0.0316 µM): 107%
- viability, T/C (second compound 3 µM, first compound 0.1 µM): 99.5%
- viability, T/C (second compound 3 µM, first compound 0.316 µM): 110%
- viability, T/C (second compound 3 µM, first compound 1 µM): 109%

- IC50 (second compound 0.00316 µM): > 10 µM
- IC50 (second compound 0.01 µM): > 10 µM
- IC50 (second compound 0.0316 µM): > 10 µM
- IC50 (second compound 0.1 µM): > 10 µM
- IC50 (second compound 0.316 µM): > 10 µM
- IC50 (second compound 1 µM): > 10 µM
SMILES: C#Cc1c(F)ccc2cc(O)cc(-c3ncc4c(N5CC6CCC(C5)N6)nc(OCC56CCCN5CC(F)C6)nc4c3F)c12 (centres undefined) + CNC(C)C(=O)NC1CN(S(=O)(=O)c2cccc(S(=O)(=O)N3CCC4CCC(C(=O)NC(c5ccccc5)c5ccccc5)N4C(=O)C(NC(=O)C(C)NC)C3)c2)CCC2CCC(C(=O)NC(c3ccccc3)c3ccccc3)N2C1=O
- viability, T/C (second compound 0.00316 µM, first compound 0.0316 µM): 101%
- viability, T/C (second compound 0.00316 µM, first compound 0.1 µM): 88.2%
- viability, T/C (second compound 0.00316 µM, first compound 0.316 µM): 103%
- viability, T/C (second compound 0.00316 µM, first compound 1 µM): 90.3%
- viability, T/C (second compound 0.00316 µM, first compound 3.16 µM): 93.5%
- viability, T/C (second compound 0.00316 µM, first compound 10 µM): 86.7%
- viability, T/C (second compound 0.01 µM, first compound 0.0316 µM): 96.9%
- viability, T/C (second compound 0.01 µM, first compound 0.1 µM): 92.3%
- viability, T/C (second compound 0.01 µM, first compound 0.316 µM): 101%
- viability, T/C (second compound 0.01 µM, first compound 1 µM): 92.9%
- viability, T/C (second compound 0.01 µM, first compound 3.16 µM): 91.8%
- viability, T/C (second compound 0.01 µM, first compound 10 µM): 89.3%
- viability, T/C (second compound 0.0316 µM, first compound 0.0316 µM): 105%
- viability, T/C (second compound 0.0316 µM, first compound 0.1 µM): 88.6%
- viability, T/C (second compound 0.0316 µM, first compound 0.316 µM): 101%
- viability, T/C (second compound 0.0316 µM, first compound 1 µM): 93.9%
- viability, T/C (second compound 0.0316 µM, first compound 3.16 µM): 102%
- viability, T/C (second compound 0.0316 µM, first compound 10 µM): 95.7%
- viability, T/C (second compound 0.1 µM, first compound 0.0316 µM): 106%
- viability, T/C (second compound 0.1 µM, first compound 0.1 µM): 99.4%
- viability, T/C (second compound 0.1 µM, first compound 0.316 µM): 104%
- viability, T/C (second compound 0.1 µM, first compound 1 µM): 94.6%
- viability, T/C (second compound 0.1 µM, first compound 3.16 µM): 94.5%
- viability, T/C (second compound 0.1 µM, first compound 10 µM): 82.8%
- viability, T/C (second compound 0.316 µM, first compound 0.0316 µM): 109%
- viability, T/C (second compound 0.316 µM, first compound 0.1 µM): 101%
- viability, T/C (second compound 0.316 µM, first compound 0.316 µM): 89.8%
- viability, T/C (second compound 0.316 µM, first compound 1 µM): 108%
- viability, T/C (second compound 0.316 µM, first compound 3.16 µM): 107%
- viability, T/C (second compound 0.316 µM, first compound 10 µM): 96%
- viability, T/C (second compound 1 µM, first compound 0.0316 µM): 90.3%
- viability, T/C (second compound 1 µM, first compound 0.1 µM): 89.8%
- viability, T/C (second compound 1 µM, first compound 0.316 µM): 98%
- viability, T/C (second compound 1 µM, first compound 1 µM): 106%
- viability, T/C (second compound 1 µM, first compound 3.16 µM): 103%
- viability, T/C (second compound 1 µM, first compound 10 µM): 92.2%
